Experimental data reported in PMC12333940, “A prometabolite strategy inhibits cardiometabolic disease in an ApoE^–/– murine model of atherosclerosis” (JCI Insight, 2025).
“And” between values parts separate entries of the source, which are not always exact repeats. Equal values may be shown once.

Tests used:
[1] = tested on: ApoE^–/– mice on an HFD; experiment: Histological grading and scoring of livers; assay type: in vivo, mouse; design: key to Liver Grading and Staging: Lobular inflammation (CD3+): one focus in which more than 10 periductal CD3^+ lymphocytes are found in an ×200 field; 2 to 5 instances of more than 10 periductal CD3^+ immune cells in an ×200 field; 3: Any sample exceeding this threshold
Method: For 6 weeks, mice were freely administered water, water containing 150 mM SerBut, or water containing an equimolar amount of NaBut. SerBut water was pH adjusted using 10 M NaOH to a final pH of 7.4. […] In concert, mice were fed an HFD with 42% from fat and 0.2% total cholesterol (Envigo, TD-88137) ad libitum. After 6 weeks, mice were euthanized. The lMLNs, ILNs, spleen, heart, and aorta were harvested and processed for flow cytometry analysis ([67]). The liver was harvested and part was homogenized in tissue protein extraction reagent buffer (Invitrogen, 78510) supplemented with protease inhibitor mini tablets (Thermo Fisher Scientific, PIA32955) for Western blotting and qPCR. The remaining liver was fixed with 4% paraformaldehyde and embedded in paraffin for histological analysis.
Sections (8 μm thick) were stained. Digital image files were created with an Olympus VS200 Research Slide Scanner (Olympus/Evident) with a Hamamatsu ORca-Fusion camera (Hamamatsu Photonics) at ×40 magnification. Individual images were created with the OlyVIA Viewer software (Olympus/Evident). Scoring and grading was performed by a pathologist as previously described ([48]). Immunohistochemistry grading was informed by age-matched WT controls. In age-matched WT controls, CD3^+ immune cells were seen scattered without distinct aggregate formation nor associated tissue reaction. In an ×400 field, we observed up to 25 CD3^+ immune cells scattered in an even distribution, with rare events of up to 10 periductal CD3^+ immune cells but with no associated ductal or parenchymal reaction. […] Furthermore, a score of 2 corresponds to 2 to 5 instances of more than 10 periductal CD3^+ immune cells in an ×200 field. Any sample exceeding this threshold was scored a 3.

[2] = tested on: NF-κB; experiment: NF-κB-SEAP reporter assay in RAW-Blue cells after LPS; assay type: cell-based; conditions: then 200 ng/mL LPS 6 h
Method: NF-κB inhibition was assayed using the NF-κB-SEAP reporter cell line, RAW-Blue (InvivoGen, raw-sp). Cells were plated in round-bottom 96-well plates at 100,000 cells per well and cocultured with different concentrations of either NaBut or SerBut (0.15–12 mM) for 24 hours. After the addition of butyrate, cells were rinsed with phosphate buffered saline (PBS) and then stimulated with 200 ng/mL LPS in media for 6 hours.

[3] = tested on: ApoE^–/– mice on an HFD; experiment: Blood chemical analysis of plasma; assay type: in vivo, mouse; design: Lipase / ALT / Altherogenic Lipids (Chol-HDL) / HDL-C / LDL-C: unit not given here
Method: SerBut water was pH adjusted using 10 M NaOH to a final pH of 7.4. […] After 6 weeks, mice were euthanized. […] The liver was harvested and part was homogenized in tissue protein extraction reagent buffer (Invitrogen, 78510) supplemented with protease inhibitor mini tablets (Thermo Fisher Scientific, PIA32955) for Western blotting and qPCR. […] Blood chemical analysis was performed on an Alfa […] Chemistry Analyzer. Reagent kits from Alfa Wasserman were used according to manufacturer's instructions to analyze plasma: lipase (catalog SA1045), HDL-C (catalog SA2038, LDL-C (catalog SA1040), AST (catalog SA1053), ALT (catalog SA1052). A LEGENDPlex was utilized to analyze the concentrations of inflammatory cytokines (BioLegend).

[4] = tested on: RAW 264.7 macrophages; experiment: Flow cytometry of iNOS, CD80, CD86 in LPS-stimulated RAW 264.7; assay type: cell-based; conditions: for CD80 MFI / iNOS MFI: then LPS 6 h; for CD80+ % Live / CD86+ % Live / iNOS+ %Live: listed as NB
Method: RAW 264.7 (ATCC, TIB-71) macrophages were cultured at 37°C and 5% CO2 in DMEM (Gibco) supplemented with 1 mM HEPES, 1 mM sodium pyruvate, 10% FBS, and penicillin/streptomycin. Cells were plated in round-bottom 96-well plates at 100,000 cells per well and incubated with different concentrations of either NaBut or SerBut (0.15–12 mM) for 24 hours. […] The cell culture supernatant was collected and analyzed by LEGENDPlex to analyze the concentrations of cytokines (BioLegend). Cell phenotype was analyzed using flow cytometry (Cytek Aurora).
Flow cytometry was performed using a BD LSRFortessa or a Cytek Aurora full-spectrum cytometer. Data were analyzed using FlowJo version 10.8.0. eFluor 780 Viability Dye (Invitrogen, 65-0865-14) and antibodies against the following markers were used in the RAW 264.7 macrophage in vitro studies: CD86 (BV421; BD Horizon, catalog 564198), CD80 (BC650; BioLegend, clone 16-10A1, catalog 104732), and iNOS (APC; Invitrogen, clone CXNFT, catalog 17-5920-9). Live/Dead Blue (Invitrogen, 123105A) and antibodies against the following markers were used in the atherosclerosis mouse models: F4/80 (FITC; BioLegend, clone BM8, catalog 123108), CD3e (BV605; BD Biosciences, clone 145-2C11, catalog 563565), CD4 (BUV496; BD Biosciences, clone GK 1.5, catalog 612952), RORγt (AF647; BD Biosciences, clone Q31-378, catalog 562682), FoxP3 (AF488, BD Biosciences, clone MF23, catalog 560403), CCR2 (PE; R&D Systems, catalog FAB5538P), Ly6C (APC-Cy7; BioLegend, catalog 128026, clone HK1.4), Ly6G (AF488; BioLegend, catalog 127626), CD8 (APC-Cy7; BioLegend, clone 53-6.7, catalog 100714), CD45 (BUV805; Invitrogen, clone 30-F11, catalog 368-0451-82), and CD25 (PerCP-Cy5.5; BioLegend, clone PC61, catalog 102030).

[5] = liver, individual mice, 150 mM ad libitum for 6 weeks, HFD
[6] = Blood Chemistry, 6wk, individual mice, experiments 1 and 2
[7] = 0.45 mM, 12 Hour LPS stim after Butyrate treament
[8] = 0.45 mM, 12 hour LPS stim before butyrate treatment
[9] = 1.3 mM, 12 Hour LPS stim after Butyrate treament
[10] = 1.3 mM, 12 hour LPS stim before butyrate treatment

CCCC(=O)[O-].[Na+] [NaBut, sodium butyrate, reference compound]
CD3^+ immune cell infiltration into the livers, lobular inflammation ([1]; 6 weeks): Neither SerBut nor NaBut significantly reduced | hepatocellular nuclear hypertrophy ([1]; 6 weeks): suppressed | Liver Grading and Staging: Balooning Grade, Hypertrophy [1, 5]: 2 and 1 | Liver Grading and Staging: Lobular inflammation (CD3+) [1, 5]: 1 and 2 and 3 and 0 | Liver Grading and Staging: Steatosis Grade, Macro fat [1, 5]: 1 and 2 | NAS score (steatosis, inflammation, Ballooning) [1, 5]: 4 and 5 and 6 and 3 and 2 | NFkB OD ([2]; 0.45 mM 24 h): 0.161 and 0.132 and 0.164 and 0.174 and 0.222 and 0.147 | NFkB OD ([2]; 1.3 mM 24 h): 0.118 and 0.109 and 0.114 and 0.106 and 0.112 and 0.117 | NFkB OD ([2]; 4 mM 24 h): 0.077 and 0.086 and 0.085 and 0.074 and 0.081 | lipase in the plasma ([3]; 6 weeks): significant increase | total cholesterol or triglycerides in the plasma ([3]; 6 weeks): Neither SerBut nor NaBut influenced | LDL-C as a fraction of total cholesterol ([3]; 6 weeks, 150 mM in drinking water, HFD): significantly reduced | Altherogenic Lipids (Chol-HDL) [3, 6]: 872 and 974 and 870 and 998 and 868 and 1098 and 1088 and 922 and 790 and 882 | HDL-C [3, 6]: 44 and 40 and 42 and 36 and 38 | LDL-C ([3]; Blood Chemistry, individual mice, experiments 1 and 2): 284 and 358 and 282 and 372 and 310 and 334 and 344 and 346 and 348 and 320 | ALT ([3]; plasma at 6 weeks, 150 mM in drinking water ad libitum with HFD, individual mice): 35.16 and 44.74 and 39.32 and 26.1 and 40.12 and 26.24 and 30.52 and 29.96 and 35.92 and 47.84 | Lipase ([3]; plasma at 6 weeks, 150 mM in drinking water with HFD): 118 and 92 and 98 and 112 and 94 and 122 and 124 and 106 | CD80 MFI ([4]; 0.15 mM 24 h): 22618 and 22070 and 22276 | iNOS MFI ([4]; 0.15 mM 24 h): 132178 and 120454 and 127565 | CD80 MFI ([4]; 0.45 mM 24 h): 22987 and 22543 and 22840 | iNOS MFI ([4]; 0.45 mM 24 h): 139940 and 135604 and 131383 | CD80+ % Live [4, 7]: 31.4% and 45.9% and 36.7% | CD86+ % Live [4, 7]: 10.9% and 12.8% and 11.6% | iNOS+ %Live [4, 7]: 72.8% and 94.5% and 85.8% | CD80+ % Live [4, 8]: 55.4% and 59.7% and 52.7% | CD86+ % Live [4, 8]: 16.4% and 16% and 15.5% | iNOS+ %Live [4, 8]: 39.7% and 50% and 39.3% | CD80 MFI ([4]; 1.3 mM 24 h): 22932 and 22915 and 22360 | iNOS MFI ([4]; 1.3 mM 24 h): 123416 and 155157 and 124806 | CD80+ % Live [4, 9]: 40.8% and 54.3% and 32.8% | CD86+ % Live [4, 9]: 22.7% and 26% and 18.7% | iNOS+ %Live [4, 9]: 66.2% and 87.1% and 52% | CD80+ % Live [4, 10]: 47.8% and 46.8% and 51.4% | CD86+ % Live [4, 10]: 16.7% and 17.4% and 18.3% | iNOS+ %Live [4, 10]: 31.6% and 29.4% and 31.8%
